In patent publication EP1272183B1, “METHODS AND COMPOSITIONS USEFUL IN ENHANCING OXYGEN DELIVERY TO CELLS” (Niadyne Corporation, priority 2000, dated 2001):

Tests used:
[1] = system: skin of human volunteers; assay: Visual observation of vasodilation (blushing) after topical application of niacin ester lotions to the forearm; type: in vivo; details: for Vasodilation at 0.1% / Vasodilation Effect at 0.1% Duration / Vasodilation Effect at 0.1% Onset: 0.1% in skin lotion; for Vasodilation at 0.1% / Vasodilation at 1.0%: anterior surface of forearm, visual observation of blushing; for Vasodilation at 1.0%: 1.0% in skin lotion; for Vasodilation Effect at 0.1% Duration / Vasodilation Effect at 0.1% Onset: visual determination
Procedure: This example details the first of two sets of experiments designed to determine the vasodilation effect of alkyl niacin esters. Formulations were prepared by combining the alkyl esters referred to supra in a skin lotion, at 0.1% and 1.0% concentrations. The lotions were applied topically to the skin of human volunteers on the anterior surface of a forearm. Vasodilation was observed visually, i.e., by observing blushing at the site of application, or lack thereof. Both onset and duration of vasodilation were measured.
Table 1: Properties of Niacin Esters

[2] = Determination of log P (Poct/w) values in accordance with Harnisch, et al.; type: physicochemical; details: experimentally determined, following Harnisch
Procedure: The Poct/w values for these compounds were determined in accordance with Harnisch, et al., J. Chromatog.

[3] = system: skin; assay: Skin oxygen and CO2 content measured with a transcutaneous monitor after topical application; type: in vivo, human
Procedure: To examine this issue, the oxygen content of skin to which the octyl ester discussed supra was determined directly, using a transcutaneous oxygen monitor. The 1% formulation of the octyl ester was applied to skin for 30 minutes. After this thirty minute period, the skin was cleaned with soap and water, wiped with an alcohol swab, and a drop of deionized water was placed on the sensor surface before its attachment to the anterior surface of the volunteers' forearms. The transcutaneous values were recorded constantly, and stored by the instrument. The monitor measures relative oxygen content, because the temperature at which the monitor operates does impact the oxygen permeability of the stratum corneum. See, e.g., Martin, Resp. […] The sensor was calibrated at 4 hour intervals, or whenever the sensor temperature was changed.
The monitor was operated at a temperature of 40°C. Values are given for both a control, and the formulation described herein.
In a follow-up experiment, the monitor was op erated at 38°C, and both O2 and CO2 were measured, with a combined transcutaneous oxygen and CO2 monitor. […] The control is represented by the dotted line.
Parallel experiments were carried out using 0.1% octyl niacin ester lotion, and a lotion containing octyl niacin ester (0.1 %), and 0.1 % butyl benzoate.
Oxygen content was measured in the same way as is described, supra, or using other techniques known to the art.

[4] = monitor at 38°C, versus control, Figure 3

logP [2]	SMILES	Vasodilation at 0.1% [1]	Vasodilation at 1.0% [1]	also measured
–	COC(=O)c1cccnc1 [1 carbon]	Yes	Yes	–
–	CCOC(=O)c1cccnc1 [2 carbons, Ethyl niacin]	Yes	Yes	Vasodilation Effect at 0.1% Duration [1]: 30 to 45 min; Vasodilation Effect at 0.1% Onset [1]: 5 to 10 min
2.4	CCCCOC(=O)c1cccnc1 [4 carbons]	Yes	Yes	–
–	CCCCCCCCOC(=O)c1cccnc1 [8 carbons, Octyl niacin]	Yes	Yes	Vasodilation Effect at 0.1% Duration [1]: 240 to 360 min; Vasodilation Effect at 0.1% Onset [1]: 10 to 20 min; Vasodilation Effect at 0.1% Duration ([1]; listed as C8): longest effect; skin oxygen (transcutaneous oxygen monitor) ([3]; 1% formulation applied to skin for 30 minutes, monitor at 40°C, versus control, Figure 2): sustained increase in skin oxygen; CO2 content (combined transcutaneous oxygen and CO2 monitor) [3, 4]: decrease in CO2 content; skin oxygen content (combined transcutaneous oxygen and CO2 monitor) [3, 4]: sustained increase in skin oxygen content
–	CCCCCCCCCOC(=O)c1cccnc1 [9 carbons]	No	Yes	Vasodilation at 1.0% ([1]; listed as C9): caused vasodilation
5.8	CCCCCCCCCCOC(=O)c1cccnc1 [10 carbons]	No	Yes	Vasodilation at 1.0% ([1]; listed as C10): caused vasodilation
–	CCCCCCCCCCCOC(=O)c1cccnc1 [11 carbons]	No	Slight	–
–	CCCCCCCCCCCCOC(=O)c1cccnc1 [12 carbons]	No	No	logP ([2]; octanol/water): 6.6
7.5	CCCCCCCCCCCCCOC(=O)c1cccnc1 [13 carbons]	No	No	–
–	CCCCCCCCCCCCCCOC(=O)c1cccnc1 [14 carbons]	No	No	logP ([2]; octanol/water): 7.6
8.3	CCCCCCCCCCCCCCCOC(=O)c1cccnc1 [15 carbons]	No	No	–
9.2	CCCCCCCCCCCCCCCCOC(=O)c1cccnc1 [16 carbons]	No	No	–
9.7	CCCCCCCCCCCCCCCCCCOC(=O)c1cccnc1 [18 carbons]	No	No	–
–	CCCCOC(=O)c1ccccc1 [Butyl benzoate, reference compound]	–	–	chromatographic logP ([2]; octanol/water): 3.5; effect on the increase in oxygen content caused by octyl niacin ester ([3]; lotion containing octyl niacin ester (0.1 %) and 0.1 % butyl benzoate versus 0.1% octyl niacin ester lotion, Figure 4): blocked the increase in oxygen content

SMILES	logP [2]	Vasodilation at 0.1% [1]	Vasodilation at 1.0% [1]	also measured
CCCCCCOC(=O)c1cccnc1 [6 carbons, Hexyl niacin]	3.5	Yes	Yes	Vasodilation Effect at 0.1% Duration [1]: 60 to 90 min; Vasodilation Effect at 0.1% Onset [1]: 10 to 15 min
